This test deals with WHHLMI rabbit. In words: Xanthomatosis-inhibiting activity in rabbit model (extent of limb xanthoma at digital joints). The conditions noted are these: male WHHLMI rabbit, digital joints of forelegs and hind legs; for Distribution of Severity: − (no occurrence), count of limb xanthoma assessments: control 2; for Distribution of Severity: +++ (mass), count of limb xanthoma assessments: control 4; for Distribution of Severity: + (dotting of granule), count of limb xanthoma assessments: control 8; for Distribution of Severity: ++ (scattering), count of limb xanthoma assessments: control 26. The format is in vivo. The method, then:
A vehicle or the test compound 1 was orally administered to a 2 months old male WHHLMI rabbit (10 to 11 animals/group) in an amount of 100, 200 mg/kg in a mixed diet for 32 weeks. After the administration for 32 weeks, xanthoma was evaluated at the digital joints of forelegs and hind legs (Table 1). The extent of limb xanthoma was assessed by classifying into four stages: no occurrence (−), dotting of granule (+), scattering (++), mass (+++)

The mark [1] stands for this setting: 100 mg/kg orally in mixed diet for 32 weeks.
[2] abbreviates: 200 mg/kg orally in mixed diet for 32 weeks.

Regarding `COc1cccc([C@H]2O[C@H](CC(=O)N3CCC(CC(=O)O)CC3)C(=O)N(CC(C)(C)COC(C)=O)c3ccc(Cl)cc32)c1OC` [Test compound 1, N-{[(3R,5S)-1-(3-acetoxy-2,2-dimethylpropyl)-7-chloro-5-(2,3-dimethoxyphenyl)-2-oxo-1,2,3,5-tetrahydro-4,1-benzoxazepin-3-yl}acetyl}piperidine-4-acetic acid], under setting [1], the “Distribution of Severity: − (no occurrence), count of limb xanthoma assessments” value is on record as 4; the “Distribution of Severity: +++ (mass), count of limb xanthoma assessments” value was 0; the “Distribution of Severity: + (dotting of granule), count of limb xanthoma assessments” value came to 13; the “Distribution of Severity: ++ (scattering), count of limb xanthoma assessments” value was 27. In addition, under setting [2], the “Distribution of Severity: − (no occurrence), count of limb xanthoma assessments” value was determined as 0; the “Distribution of Severity: +++ (mass), count of limb xanthoma assessments” value is 0; the “Distribution of Severity: + (dotting of granule), count of limb xanthoma assessments” value came out at 29; the “Distribution of Severity: ++ (scattering), count of limb xanthoma assessments” value amounted to 15.
